Laboratory results as given in patent US20040171566A1, “Antisense modulation of p38 mitogen activated protein kinase expression” (priority 1999, published 2004).
In the oligonucleotide strings, read from the 5' end, every base follows the letter of its sugar. An asterisk marks phosphorothioate; unmarked linkages are phosphodiester. Other units and linkages are bracketed, terminal groups are in braces. A string of capitals states the bases alone. e = 2'-O-(2-methoxyethyl) (MOE); [5mC] = 5-methylcytosine; d = 2'-deoxy (DNA)

Columns and labels:
[1] = system: human p38β mRNA; test: Inhibition of human p38β mRNA expression in HUVEC cells, Northern blot; type: cell-based
Experimental: (§1) The human Jurkat T-cell line (American Type Culture Collection, Manassas, Va.) was maintained in RPMI 1640 growth media supplemented with 10% fetal bovine serum (FBS; Hyclone, Logan, Utah). HUVEC cells (Clonetics, San Diego, Calif.) were cultivated in endothelial basal media supplemented with 10% FBS (Hyclone, Logan, Utah).
HUVEC cells were allowed to reach 75% confluency prior to use. The cells were washed twice with warm (37° C.) OPTI-MEM™ (Life Technologies). The cells were incubated in the presence of the appropriate culture medium, without the growth factors added, and the oligonucleotide formulated in LIPOFECTIN7 (Life Technologies), a 1:1 (w/w) liposome formulation of the cationic lipid N-[1-(2,3-dioleyloxy)propyl]-n,n,n-trimethylammonium chloride (DOTMA), and dioleoyl phosphotidylethanolamine (DOPE) in membrane filtered water. HUVEC cells were treated with 100 nM oligonucleotide in 10 μg/ml LIPOFECTIN7. Treatment was for four hours.
(§2) Total mRNA was isolated using the RNEASY7 Mini Kit (Qiagen, Valencia, Calif.; similar kits from other manufacturers may also be used), separated on a 1% agarose gel, transferred to HYBOND™-N+ membrane (Amersham Pharmacia Biotech, Piscataway, N.J.), a positively charged nylon membrane, and probed. p38 MAPK probes were made using the Prime-A-Gene7 kit (Promega Corporation, Madison, Wis.), a random primer labeling kit, using mouse p38α or p38β cDNA as a template. A glyceraldehyde 3-phosphate dehydrogenase (G3PDH) probe was purchased from Clontech (Palo Alto, Calif.), Catalog Number 9805-1. The fragments were purified from low-melting temperature agarose, as described in Maniatis, T., et al., Molecular Cloning: A Laboratory Manual, 1989. The G3PDH probe was labeled with REDIVUE™ ^32P-dCTP (Amersham Pharmacia Biotech, Piscataway, N.J.) and Strip-EZ labelling kit (Ambion, Austin, Tex.). mRNA was quantitated by a PhosphoImager (Molecular Dynamics, Sunnyvale, Calif.).
Every oligonucleotide tested gave at least 50% inhibition.
Oligonucleotides 17893 (SEQ ID NO. 27), 17899 (SEQ ID NO:33), 17904 (SEQ ID NO. 38), and 17907 (SEQ ID NO. 41) were chosen for dose response studies. HUVEC cells were cultured and treated as described in Example 2 except that the oligonucleotide concentration was varied as shown in Table 6. The Lipofectin7/Oligo ratio was maintained at 3 μg Lipofectin7/100 nM oligo, per ml. mRNA was measured by Northern blot as described in Example 2.

[2] = system: human p38α mRNA; test: Inhibition of human p38α mRNA expression in Jurkat cells, Northern blot; type: cell-based
Experimental: as §1
Jurkat cells were grown to approximately 75% confluency and resuspended in culture media at a density of 1×10^7 cells/ml. A total of 3.6×10^6 cells were employed for each treatment by combining 360 μl of cell suspension with oligonucleotide at the indicated concentrations to reach a final volume of 400 μl. Cells were then transferred to an electroporation cuvette and electroporated using an Electrocell Manipulator 600 instrument (Biotechnologies and Experimental Research, Inc.) employing 150 V, 1000 μF, at 13 Ω. Electroporated cells were then transferred to conical tubes containing 5 ml of culture media, mixed by inversion, and plated onto 10 cm culture dishes.
as §2
Jurkat cells were grown and treated as described above except the concentration of oligonucleotide was varied as indicated in Table 3. […] Maximum inhibition was approximately 70% with 16500 (SEQ ID NO 17).

[3] = 100 nM oligonucleotide in 10 μg/ml LIPOFECTIN, four hours, Northern blot
[4] = Jurkat cells electroporated with 10 μM oligonucleotide, Northern blot

Sequence | % mRNA EXPRESSION [1, 3] [%] | % mRNA Inhibition [1, 3] [%] | % mRNA EXPRESSION [2, 4] [%] | % mRNA Inhibition [2, 4] | other results
AACGCTCTCATCATATGGCT (chemistry not fully specified) [ISIS 17903] | 11 | 89 | – | – | –
ATGTTCTTCCAGTCAACAGC (antisense eA*eT*eG*eT*eT*e[5mC]*dT*dT*dC*dC*dA*dG*dT*dC*eA*eA*e[5mC]*eA*eG*e[5mC]) [ISIS 16498] | – | – | 88 | 12% | –
AACGTGCTCGTCAAGTGCCA (chemistry not fully specified) [ISIS 17898] | 49 | 51 | – | – | –
ACTTGACGATGTTGTTCAGG (antisense; chemistry not fully specified) [ISIS 17897] | 25 | 75 | – | – | –
GAAGTGGGATCAACAGAACA (eG*eA*eA*eG*eT*eG*dG*dG*dA*dT*dC*dA*dA*dC*eA*eG*eA*eA*e[5mC]*eA; antisense) [ISIS 16501] | – | – | 77 | 23% | –
AACCAGGTGCTCAGGACTCC (antisense eA*eA*e[5mC]*e[5mC]*eA*eG*dG*dT*dG*dC*dT*dC*dA*dG*eG*eA*e[5mC]*eT*e[5mC]*e[5mC]) [ISIS 16500] | – | – | 63 | – | % mRNA EXPRESSION ([2]; Jurkat cells, dose 2.5 nM): 82%; % mRNA Inhibition ([2]; Jurkat cells, dose 2.5 nM): 18%; % mRNA EXPRESSION ([2]; Jurkat cells, dose 5 nM): 71%; % mRNA Inhibition ([2]; Jurkat cells, dose 5 nM): 29%; % mRNA EXPRESSION ([2]; Jurkat cells, dose 10 nM): 49%; % mRNA Inhibition ([2]; Jurkat cells, dose 10 nM): 51%; % mRNA EXPRESSION ([2]; Jurkat cells, dose 20 nM): 31%; % mRNA Inhibition ([2]; Jurkat cells, dose 20 nM): 69%; Maximum inhibition of p38α mRNA ([2]; Jurkat cells, dose response): approximately 70%
TCTGTGACCATAGGAGTGTG (antisense; chemistry not fully specified) [ISIS 17905] | 14 | 86 | – | – | –
AGGCACTTGAATAATATTTG (eA*eG*eG*e[5mC]*eA*e[5mC]*dT*dT*dG*dA*dA*dT*dA*dA*eT*eA*eT*eT*eT*eG; antisense) [ISIS 16503] | – | – | 65 | – | % mRNA EXPRESSION ([2]; Jurkat cells, dose 2.5 nM): 74%; % mRNA Inhibition ([2]; Jurkat cells, dose 2.5 nM): 26%; % mRNA EXPRESSION ([2]; Jurkat cells, dose 5 nM): 61%; % mRNA Inhibition ([2]; Jurkat cells, dose 5 nM): 39%; % mRNA EXPRESSION ([2]; Jurkat cells, dose 10 nM): 53%; % mRNA Inhibition ([2]; Jurkat cells, dose 10 nM): 47%; % mRNA EXPRESSION ([2]; Jurkat cells, dose 20 nM): 41%; % mRNA Inhibition ([2]; Jurkat cells, dose 20 nM): 59%
TAAGGAGGTCCCTGCTTTCA (antisense eT*eA*eA*eG*eG*eA*dG*dG*dT*dC*dC*dC*dT*dG*e[5mC]*eT*eT*eT*e[5mC]*eA) [ISIS 16499] | – | – | 74 | 26% | –
CAGCACCTCACTGCTCAATC (chemistry not fully specified) [ISIS 17904] | 9 | 91 | – | – | % mRNA EXPRESSION ([1]; dose 10 nM): 31%; % mRNA Inhibition ([1]; dose 10 nM): 69%; % mRNA EXPRESSION ([1]; dose 25 nM): 21%; % mRNA Inhibition ([1]; dose 25 nM): 79%; % mRNA EXPRESSION ([1]; dose 50 nM): 17%; % mRNA Inhibition ([1]; dose 50 nM): 83%; % mRNA EXPRESSION ([1]; dose 100 nM): 19%; % mRNA Inhibition ([1]; dose 100 nM): 81%
TGGCAGCAAAGTGCTGCTGG (eT*eG*eG*e[5mC]*eA*eG*dC*dA*dA*dA*dG*dT*dG*dC*eT*eG*e[5mC]*eT*eG*eG; antisense) [ISIS 16488] | – | – | 157 | – | –
ACACATGCACACACACTAAC (antisense eA*e[5mC]*eA*e[5mC]*eA*eT*dG*dC*dA*dC*dA*dC*dA*dC*eA*e[5mC]*eT*eA*eA*e[5mC]) [ISIS 16505] | – | – | 93 | 7% | –
TGAAAAGGCCTTCCCCTCAC (antisense eT*eG*eA*eA*eA*eA*dG*dG*dC*dC*dT*dT*dC*dC*e[5mC]*e[5mC]*eT*e[5mC]*eA*e[5mC]) [ISIS 16502] | – | – | 79 | 21% | –
CTTGCCAGATATGGCTGCTG (chemistry not fully specified) [ISIS 17910] | 26 | 74 | – | – | –
TGTGCCGAATCTCGGCCTCT (antisense eT*eG*eT*eG*e[5mC]*e[5mC]*dG*dA*dA*dT*dC*dT*dC*dG*eG*e[5mC]*e[5mC]*eT*e[5mC]*eT) [ISIS 16490] | – | – | 152 | no inhibition | % mRNA EXPRESSION ([2]; Jurkat cells, dose 2.5 nM): 112%; % mRNA EXPRESSION ([2]; Jurkat cells, dose 5 nM): 109%; % mRNA EXPRESSION ([2]; Jurkat cells, dose 10 nM): 104%; % mRNA EXPRESSION ([2]; Jurkat cells, dose 20 nM): 97%; % mRNA Inhibition ([2]; Jurkat cells, dose 20 nM): 3%
TTCAGCTCCTGCCGGTAGAA (chemistry not fully specified) [ISIS 17892] | 10 | 90 | – | – | –
GCGTGAAGACGTCCAGAAGC (chemistry not fully specified) [ISIS 17896] | 24 | 76 | – | – | –
